Like-named read-outs stand apart in the source and are kept apart here.
How the values were obtained:
tankyrase 2 (TNKS2) = molecular target: T1, tankyrase 2 (TNKS2) (Homo sapiens, UniProt Q9H2K2); assay: μHTS-TNKS-IWR2 TR-FRET Binding Assay (Example 118), His6-TNKS2 substituted; conditions: procedure in Example 118 with His6-TNKS2
T1 construct: His6-tankyrase 2 (construct: 934-1166) (His6-TNKS2)

Tankyrase 1 (TNKS1) = molecular target: T2, Tankyrase 1 (TNKS1) (Homo sapiens, UniProt O95271); assay: μHTS-TNKS-IWR2 TR-FRET Binding Assay (Example 118), His6-TNKS1
T2 construct: His6-TNKS1, MW=28.2 KDa (construct: 1088-1327, 1266M)
Summary of the method: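 His6-TNKS1 binding to biotin-IWR2 probe measured by TR-FRET (Eu/APC, 3.5 nM/50 nM stock) in pH 7.4 Tris buffer with DTT, BSA and NP-40; TNKS1 added from 300 nM 5× stock. Compound pre-incubated with probe and enzyme 30 min at 26 °C, then detection reagents 60 min at 26 °C; single point.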

[1] = Compounds I-1 to I-58, procedure in Example 118 (TR-FRET, Biotin-IWR2 60 nM, TNKS 60 nM), read-out: TNKS1 (IC50)

T1 sequence (Q9H2K2 934-1166): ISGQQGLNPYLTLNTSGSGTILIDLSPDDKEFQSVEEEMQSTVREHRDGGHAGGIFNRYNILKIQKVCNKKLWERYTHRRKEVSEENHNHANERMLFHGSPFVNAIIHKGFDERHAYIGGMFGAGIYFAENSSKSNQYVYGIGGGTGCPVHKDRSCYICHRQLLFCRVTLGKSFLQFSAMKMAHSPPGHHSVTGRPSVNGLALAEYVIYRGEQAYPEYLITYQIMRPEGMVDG
T2 sequence (O95271 1088-1327): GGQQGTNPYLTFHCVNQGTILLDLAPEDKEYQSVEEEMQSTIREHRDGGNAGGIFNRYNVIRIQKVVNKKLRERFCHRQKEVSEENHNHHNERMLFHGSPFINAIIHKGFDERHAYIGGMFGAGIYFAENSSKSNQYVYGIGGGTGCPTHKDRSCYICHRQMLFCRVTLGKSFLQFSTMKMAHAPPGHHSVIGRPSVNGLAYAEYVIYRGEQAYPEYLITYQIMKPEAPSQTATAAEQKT

Molecule | IC50 (tankyrase 2 (TNKS2)) | IC50 (Tankyrase 1 (TNKS1); [1]) | IC50 (Tankyrase 1 (TNKS1))
6-[4-(4-fluorophenyl)-1- piperidyl]-1-methyl-5H- pyrazolo[4 3-c]pyridin-4- one [Compound I-8] | 42.8 nM | 42 nM | –
Cn1ncc2c(=O)[nH]c(N3CCC(c4ccc(C(F)(F)F)cc4)CC3)nc21 [Compound I-6, 1-methyl-6-[4-[4-(trifluoromethyl)phenyl]-1-piperidyl]-5H-pyrazolo[3 4-d]pyrimidin-4-one] | 68.3 nM | – | 66 nM
Cn1ncc2c(=O)[nH]c(N3CCN(C4CCCC4)CC3)nc21 [Compound I-37, 6-(4-cyclopentylpiperazin-1-yl)-1-methyl-5H-pyrazolo[3 4-d]pyrimidin-4-one] | 178 nM | – | 165 nM
Cn1ncc2c(=O)[nH]c(N3CCC(c4ccc(F)cc4)CC3)nc21 [Compound I-5, 6-[4-(4-fluorophenyl)-1-piperidyl]-1-methyl-5H-pyrazolo[3 4-d]pyrimidin-4-one] | 37.6 nM | – | 31 nM
Cn1ncc2c(=O)[nH]c(N3CCN(c4ccc(S(C)(=O)=O)cc4F)CC3)nc21 [Compound I-21, 6-[4-(2-fluoro-4-methylsulfonyl-phenyl)piperazin-1-yl]-1-methyl-5H-pyrazolo[3 4-d]pyrimidin-4-one] | 81.5 nM | – | 55 nM
6-[4-(3 5-dichloro-4- pyridyl)piperazin-1-yl]-1- methyl-5H-pyrazolo[4 3- c]pyridin-4-one [Compound I-47] | 29.1 nM | 26 nM | –
6-[4-(2- fluorophenyl)piperazin-1- yl]-1-methyl-5H- pyrazolo[4 3-c]pyridin-4- one [Compound I-7] | 41.2 nM | 46 nM | –
Cn1ncc2c(=O)[nH]c(N3CCN(c4ccnc(Cl)c4Cl)CC3)nc21 [Compound I-46, 6-[4-(2 3-dichloro-4-pyridyl)piperazin-1-yl]-1-methyl-5H-pyrazolo[3 4-d]pyrimidin-4-one] | 93.9 nM | – | 61 nM
Cn1ncc2c(=O)[nH]c(N3CCN(c4ncccc4C(F)(F)F)CC3)cc21 [Compound I-26, 1-methyl-6-[4-[3-(trifluoromethyl)-2-pyridyl]piperazin-1-yl]-5H-pyrazolo[4 3-c]pyridin-4-one] | 30.4 nM | – | 29 nM
Cn1ncc2c(=O)[nH]c(N3CCN(c4c(F)cccc4F)CC3)cc21 [Compound I-51, 6-[4-(2 6-difluorophenyl)piperazin-1-yl]-1-methyl-5H-pyrazolo[4 3-c]pyridin-4-one] | 23.1 nM | – | 25 nM
Cn1ncc2c(=O)[nH]c(N3CCN(c4c(Cl)cccc4Cl)CC3)nc21 [Compound I-42, 6-[4-(2 6-dichlorophenyl)piperazin-1-yl]-1-methyl-5H-pyrazolo[3 4-d]pyrimidin-4-one] | 26.3 nM | – | 24 nM
Cn1ncc2c(=O)[nH]c(N3CCN(c4ccccc4C(F)(F)F)CC3)nc21 [Compound I-19, 1-methyl-6-[4-[2-(trifluoromethyl)phenyl]piperazin-1-yl]-5H-pyrazolo[3 4-d]pyrimidin-4-one] | 32.6 nM | – | 27 nM
O=c1[nH]c(N2CCC(c3ccc(F)cc3)CC2)nc2[nH]ncc12 [Compound I-9, 6-[4-(4-fluorophenyl)-1-piperidyl]-1 5-dihydropyrazolo[3 4-d]pyrimidin-4-one] | 664 nM | – | 374 nM
CCOC(=O)c1ccc(N2CCN(c3nc4c(cnn4C)c(=O)[nH]3)CC2)cc1 [Compound I-41, ethyl 4-[4-(1-methyl-4-oxo-5H-pyrazolo[3 4-d]pyrimidin-6-yl)piperazin-1-yl]benzoate] | 135 nM | – | 107 nM
Cn1ncc2c(=O)[nH]c(N3CCC(O)(c4ccccn4)CC3)nc21 [Compound I-35, 6-[4-hydroxy-4-(2-pyridyl)-1-piperidyl)-1-methyl-5H-pyrazolo[3 4-d]pyrimidin-1-one] | 94.5 nM | – | 69 nM
Cn1ncc2c(=O)[nH]c(N3CCN(c4ccc(C#N)cc4F)CC3)nc21 [Compound I-28, 3-fluoro-4-[4-(1-methyl-4-oxo-5H-pyrazolo[3 4-d]pyrimidin-6-yl)piperazin-1-yl]benzonitrile] | 76.5 nM | – | 51 nM
Cn1ncc2c(=O)[nH]c(N3CCN(c4ncccc4C#N)CC3)nc21 [Compound I-18, 2-[4-(1-methyl-4-oxo-5H-pyrazolo[3 4-d]pyrimidin-6-yl)piperazin-1-yl]pyridine-3-carbonitrile] | 228 nM | – | 150 nM
Cn1ncc2c(=O)[nH]c(-c3ccc(C(F)(F)F)cc3)cc21 [Compound I-13, 1-methyl-6-[4-(trifluoromethyl)phenyl]-5H-pyrazolo[4 3-c]pyridin-4-one] | 32.5 nM | – | 32 nM

Reference: patent publication US20130345215A1, “PYRAZOLOPYRIMIDONE AND PYRAZOLOPYRIDONE INHIBITORS OF TANKYRASE” (Genentech, Inc., priority 2012, published 2013)
